The values that follow are results of earlier work, collected in patent US10308663B2, “Inhibitors of PTP4A3 for the treatment of cancer” (University of Virginia Patent Foundation, priority 2015, dated 2019).

The subject of the data set is YOP(H?). The following applies: DiFMUP as a substrate; reported by Hoeger et al.; cited from earlier work.

Usually IC50 stands for the concentration at which inhibition is half-maximal. On to `Nc1c[nH]c(=O)c2cc(-c3ccccc3)sc12` [Thienopyridone (5), 7-amino-2-phenylthieno[3,2-c]pyridin-4(5H)-one], for which the IC50 was 61 µM.
